Experimental data published in US20210315880A1, “METHODS OF TREATING VIRAL INFECTIONS USING INHIBITORS OF NUCLEOTIDE SYNTHESIS PATHWAYS” (priority 2020, published 2021).
Like-named read-outs stand apart in the source and are kept apart here.

Columns and labels:
advanced lung cancer = conditions: weekly rapid iv injection, previously treated patients with advanced lung cancer; cited from earlier work
solid malignancies = conditions: cited from earlier work; for recommended dose for phase II studies: 1-h i.v. infusion every 3 weeks; for maximum tolerable dose: i.v. infusion every 3 weeks
[1] = tested on: acute myeloid leukemia (AML); assay: Effect of brequinar-containing composition on patient with AML; assay type: in vivo, human
RNA virus = assay: Daily brequinar x 5 days in a subject infected with an RNA virus; assay type: in vivo; conditions: at first peak in brequinar level, once per day for five days
Procedure: The mechanism by which administration of a DHODH inhibitor according to a daily dosing regimen inhibits viral replication is illustrated below. […] Throughout the course of the dosing regimen, levels of intracellular pyrimidines, such as uridine, and viral replication are measured.

DHODH = DHODH (Homo sapiens, UniProt Q02127)
[2] = in vivo
[3] = in vivo; remark: listed apart in the source
[4] = Adverse events in subjects receiving brequinar intravenously once a week; conditions: Infection
SARS-CoV-2 = assay type: cell-based
Vero E6 cells = conditions: remdesivir co-treated with brequinar

Chain of DHODH (Q02127 whole entry): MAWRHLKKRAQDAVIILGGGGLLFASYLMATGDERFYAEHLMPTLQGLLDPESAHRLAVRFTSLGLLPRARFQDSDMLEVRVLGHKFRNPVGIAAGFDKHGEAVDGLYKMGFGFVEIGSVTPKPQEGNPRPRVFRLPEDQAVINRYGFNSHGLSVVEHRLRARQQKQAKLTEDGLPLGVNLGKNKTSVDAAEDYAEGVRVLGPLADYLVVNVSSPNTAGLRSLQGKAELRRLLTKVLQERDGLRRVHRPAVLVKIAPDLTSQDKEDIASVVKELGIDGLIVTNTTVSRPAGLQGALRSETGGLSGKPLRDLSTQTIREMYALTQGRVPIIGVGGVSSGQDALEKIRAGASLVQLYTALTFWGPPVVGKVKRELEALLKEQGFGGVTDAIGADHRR

NC(=O)c1[nH]nc([C@@H]2O[C@H](CO)[C@@H](O)[C@H]2O)c1O [PYR, 5-[(2S,3R,4S,5R)-3,4-dihydroxy-5-(hydroxymethyl)oxolan-2-yl]-4-hydroxy-1H-pyrazole-3-carboxamide]
therapeutic value (advanced lung cancer): has little therapeutic value as a single agent

Cc1c(-c2ccc(-c3ccccc3F)cc2)nc2ccc(F)cc2c1C(=O)O [Brequinar sodium]
recommended dose for phase II studies (solid malignancies; good-risk patients): 1,800 mg/m^2
maximum tolerable dose (solid malignancies; good-risk patients): 2,250 mg/m^2
tumor response (solid malignancies; patient with papillary carcinoma of the thyroid): One mixed response
recommended dose for phase II studies (solid malignancies; poor-risk patients): 1,200 mg/m^2
maximum tolerable dose (solid malignancies; poor-risk patients): 1,500 mg/m^2

Cc1c(-c2ccc(-c3ccccc3F)cc2)nc2ccc(F)cc2c1C(=O)O [brequinar, 6-fluoro-2-(2′-fluoro-1,1′ biphenyl-4-yl)-3-methyl-4-quinoline carboxylic acid]
response ([1]; first patient with AML (Example 12)): positive response as indicated by reduction in bone marrow blast count, improvement of extramedullary hematopoiesis, and shift to more differentiation in peripheral blasts
response ([1]; patient with AML of Example 14): positive response as indicated by a trend towards differentiation of their peripheral blasts
response ([1]; second patient with AML (Example 13)): positive response to the disease with a lowering of peripheral blasts and increase in absolute neutrophil count, along with greater differentiation of peripheral blasts
intracellular pyrimidine pool (RNA virus): dramatic decrease in the intracellular pyrimidine pool
viral replication (RNA virus): dramatic reduction in viral replication
concentrations at which DHODH is almost completely inhibited (DHODH): > 1 µM
effect of repeated doses [2]: No cumulative effective of repeated doses
oral versus IV formulations [3]: oral and IV formulations are equivalent
No. of Patients [4]: 7
No. of Patients Experiencing the AE, 5 y Max Grade 1 [4]: 4
No. of Patients Experiencing the AE, 5 y Max Grade 2 [4]: 3
No. of Patients Experiencing the AE, 5 y Max Grade 3 [4]: 0
No. of Patients Experiencing the AE, 5 y Max Grade 4 [4]: 0
Percent [4]: 3.3%

CCC(CC)COC(=O)[C@H](C)N[P@](=O)(OC[C@H]1O[C@@](C#N)(c2ccc3c(N)ncnn23)[C@H](O)[C@@H]1O)Oc1ccccc1 [remdesivir]
Min Data (SARS-CoV-2; brequinar 0.000 μM): −11%
Min Data (SARS-CoV-2; brequinar 0.078 μM): −1.9%
cytotoxicity of co-treatment (Vero E6 cells): No enhanced cytotoxicity
